From ChEMBL document CHEMBL3400015, “Tertiary amides of Salinomycin: A new group of antibacterial agents against Bacillus anthracis and methicillin-resistant Staphylococcus epidermidis” (Bioorg Med Chem Lett, 2015)
Values after ≈ are worked out from the molar mass of the structure shown.

What was measured:
Staphylococcus aureus [1] = assay: Antimicrobial activity against Staphylococcus aureus NCTC 4163 after 18 hrs by twofold serial broth dilution method; format: functional; details: NCTC 4163, 18 h
Staphylococcus aureus [2] = assay: Antimicrobial activity against Staphylococcus aureus ATCC 25923 after 18 hrs by twofold serial broth dilution method; format: functional; details: ATCC 25923, 18 h
Staphylococcus aureus [3] = assay: Antimicrobial activity against Staphylococcus aureus […] after 18 hrs by twofold serial broth dilution method; format: functional
[4] = test system: Staphylococcus epidermidis; assay: Antimicrobial activity against Staphylococcus epidermidis ATCC 12228 after 18 hrs by twofold serial broth dilution method; format: functional; details: ATCC 12228, 18 h
Escherichia coli [5] = assay: Antimicrobial activity against Escherichia coli ATCC 25922 after 18 hrs by twofold serial broth dilution method; format: functional; details: ATCC 25922, 18 h
Escherichia coli [6] = assay: Antimicrobial activity against Escherichia coli NCTC 8196 after 18 hrs by twofold serial broth dilution method; format: functional; details: NCTC 8196, 18 h
Pseudomonas aeruginosa [7] = assay: Antimicrobial activity against Pseudomonas aeruginosa NCTC 6749 after 18 hrs by twofold serial broth dilution method; format: functional; details: NCTC 6749, 18 h
Pseudomonas aeruginosa [8] = assay: Antimicrobial activity against Pseudomonas aeruginosa ATCC 27853 after 18 hrs by twofold serial broth dilution method; format: functional; details: ATCC 27853, 18 h
Bacillus anthracis = assay: Antimicrobial activity against Bacillus anthracis 34F2 after 18 hrs by twofold serial broth dilution method; format: functional; details: 34F2, 18 h
Staphylococcus aureus [9] = assay: Bactericidal activity against Staphylococcus aureus NCTC 4163 after 24 hrs; format: functional; details: NCTC 4163, 24 h, read-out: MBC99.9
Staphylococcus aureus [10] = assay: Bactericidal activity against Staphylococcus aureus ATCC 25923 after 24 hrs; format: functional; details: ATCC 25923, 24 h, read-out: MBC99.9
Staphylococcus aureus [11] = assay: Bactericidal activity against Staphylococcus aureus ATCC 6538 after 24 hrs; format: functional; details: ATCC 6538, 24 h, read-out: MBC99.9
Staphylococcus aureus [12] = assay: Bactericidal activity against Staphylococcus aureus […] after 24 hrs; format: functional; details: read-out: MBC99.9
[13] = test system: Staphylococcus epidermidis; assay: Bactericidal activity against Staphylococcus epidermidis ATCC 35984 after 24 hrs; format: functional; details: ATCC 35984, 24 h, read-out: MBC99.9
Escherichia coli [14] = assay: Bactericidal activity against Escherichia coli ATCC 10538 after 24 hrs; format: functional; details: ATCC 10538, 24 h, read-out: MBC99.9
Escherichia coli [15] = assay: Bactericidal activity against Escherichia coli NCTC 8196 after 24 hrs; format: functional; details: NCTC 8196, 24 h, read-out: MBC99.9
Pseudomonas aeruginosa [16] = assay: Bactericidal activity against Pseudomonas aeruginosa ATCC 15442 after 24 hrs; format: functional; details: ATCC 15442, 24 h, read-out: MBC99.9
Pseudomonas aeruginosa [17] = assay: Bactericidal activity against Pseudomonas aeruginosa NCTC 6749 after 24 hrs; format: functional; details: NCTC 6749, 24 h, read-out: MBC99.9
Pseudomonas aeruginosa [18] = assay: Bactericidal activity against Pseudomonas aeruginosa ATCC 27853 after 24 hrs; format: functional; details: ATCC 27853, 24 h, read-out: MBC99.9
[19] = test system: Staphylococcus epidermidis; assay: Antimicrobial activity against methicillin-resistant Staphylococcus epidermidis isolate 404/10 after 18 hrs by twofold serial broth dilution method; format: functional; details: isolate 404/10, 18 h
[20] = test system: Staphylococcus epidermidis; assay: Antimicrobial activity against methicillin-resistant Staphylococcus epidermidis isolate 407/10 after 18 hrs by twofold serial broth dilution method; format: functional; details: isolate 407/10, 18 h
[21] = test system: Staphylococcus epidermidis; assay: Antimicrobial activity against methicillin-resistant Staphylococcus epidermidis isolate 409/10 after 18 hrs by twofold serial broth dilution method; format: functional; details: isolate 409/10, 18 h
[22] = test system: Staphylococcus epidermidis; assay: Antimicrobial activity against methicillin-resistant Staphylococcus epidermidis isolate 422/10 after 18 hrs by twofold serial broth dilution method; format: functional; details: isolate 422/10, 18 h
[23] = test system: Staphylococcus epidermidis; assay: Antimicrobial activity against methicillin-resistant Staphylococcus epidermidis isolate 424/10 after 18 hrs by twofold serial broth dilution method; format: functional; details: isolate 424/10, 18 h
[24] = test system: Staphylococcus epidermidis; assay: Antimicrobial activity against methicillin-resistant Staphylococcus epidermidis isolate 454/11 after 18 hrs by twofold serial broth dilution method; format: functional; details: isolate 454/11, 18 h
[25] = test system: Staphylococcus epidermidis; assay: Antimicrobial activity against methicillin-resistant Staphylococcus epidermidis isolate 458/11 after 18 hrs by twofold serial broth dilution method; format: functional; details: isolate 458/11, 18 h
[26] = test system: Staphylococcus epidermidis; assay: Antimicrobial activity against methicillin-resistant Staphylococcus epidermidis isolate 459/11 after 18 hrs by twofold serial broth dilution method; format: functional; details: isolate 459/11, 18 h
[27] = test system: Staphylococcus epidermidis; assay: Antimicrobial activity against methicillin-resistant Staphylococcus epidermidis isolate 461/11 after 18 hrs by twofold serial broth dilution method; format: functional; details: isolate 461/11, 18 h
[28] = test system: Staphylococcus epidermidis; assay: Antimicrobial activity against methicillin-resistant Staphylococcus epidermidis isolate 469/11 after 18 hrs by twofold serial broth dilution method; format: functional; details: isolate 469/11, 18 h
[29] = test system: Staphylococcus epidermidis; assay: Antimicrobial activity against methicillin-resistant Staphylococcus epidermidis isolate 470/11 after 18 hrs by twofold serial broth dilution method; format: functional; details: isolate 470/11, 18 h
[30] = test system: Staphylococcus epidermidis; assay: Bactericidal activity against methicillin-resistant Staphylococcus epidermidis isolate 405/10 after 24 hrs; format: functional; details: isolate 405/10, 24 h, read-out: MBC99.9
[31] = test system: Staphylococcus epidermidis; assay: Bactericidal activity against methicillin-resistant Staphylococcus epidermidis isolate 407/10 after 24 hrs; format: functional; details: isolate 407/10, 24 h, read-out: MBC99.9
[32] = test system: Staphylococcus epidermidis; assay: Bactericidal activity against methicillin-resistant Staphylococcus epidermidis isolate 409/10 after 24 hrs; format: functional; details: isolate 409/10, 24 h, read-out: MBC99.9
[33] = test system: Staphylococcus epidermidis; assay: Bactericidal activity against methicillin-resistant Staphylococcus epidermidis isolate 422/10 after 24 hrs; format: functional; details: isolate 422/10, 24 h, read-out: MBC99.9
[34] = test system: Staphylococcus epidermidis; assay: Bactericidal activity against methicillin-resistant Staphylococcus epidermidis isolate 424/10 after 24 hrs; format: functional; details: isolate 424/10, 24 h, read-out: MBC99.9
[35] = test system: Staphylococcus epidermidis; assay: Bactericidal activity against methicillin-resistant Staphylococcus epidermidis isolate 454/11 after 24 hrs; format: functional; details: isolate 454/11, 24 h, read-out: MBC99.9
[36] = test system: Staphylococcus epidermidis; assay: Bactericidal activity against methicillin-resistant Staphylococcus epidermidis isolate 457/11 after 24 hrs; format: functional; details: isolate 457/11, 24 h, read-out: MBC99.9
[37] = test system: Staphylococcus epidermidis; assay: Bactericidal activity against methicillin-resistant Staphylococcus epidermidis isolate 460/11 after 24 hrs; format: functional; details: isolate 460/11, 24 h, read-out: MBC99.9
[38] = test system: Staphylococcus epidermidis; assay: Bactericidal activity against methicillin-resistant Staphylococcus epidermidis isolate 461/11 after 24 hrs; format: functional; details: isolate 461/11, 24 h, read-out: MBC99.9
[39] = test system: Staphylococcus epidermidis; assay: Bactericidal activity against methicillin-resistant Staphylococcus epidermidis isolate 469/11 after 24 hrs; format: functional; details: isolate 469/11, 24 h, read-out: MBC99.9
[40] = test system: Staphylococcus epidermidis; assay: Bactericidal activity against methicillin-resistant Staphylococcus epidermidis isolate 470/11 after 24 hrs; format: functional; details: isolate 470/11, 24 h, read-out: MBC99.9
Bacillus subtilis [41] = assay: Genotoxicity in rec-positive Bacillus subtilis H17 at 2 ug/9 mm disc after 24 hrs by disc diffusion method; format: toxicity, organism-based
Bacillus subtilis [42] = assay: Genotoxicity in rec-negative Bacillus subtilis M45 at 2 ug/9 mm disc after 24 hrs by disc diffusion method; format: toxicity, organism-based

## CC[C@@H](C(=O)[C@@H](C)[C@@H](O)[C@H](C)[C@@H]1O[C@@H]([C@@H](CC)C(=O)N(CCOC)CCOC)CC[C@@H]1C)[C@H]1O[C@]2(C=C[C@@H](O)[C@]3(CC[C@@](C)([C@H]4CC[C@](O)(CC)[C@H](C)O4)O3)O2)[C@H](C)C[C@@H]1C
Staphylococcus aureus [1]
  MIC: 64 µg/mL (≈ 73.9 µM)
Staphylococcus aureus [2]
  MIC: 64 µg/mL (≈ 73.9 µM)
Staphylococcus aureus [3]
  MIC: 128 µg/mL (≈ 148 µM)
[4]
  MIC: 128 µg/mL (≈ 148 µM)
Escherichia coli [5]
  MIC: > 256 µg/mL
Escherichia coli [6]
  MIC: > 256 µg/mL
Pseudomonas aeruginosa [7]
  MIC: > 256 µg/mL
Pseudomonas aeruginosa [8]
  MIC: > 256 µg/mL
Bacillus anthracis
  MIC: 512 µg/mL (≈ 591 µM)
Staphylococcus aureus [9]
  MBC: > 256 µg/mL
Staphylococcus aureus [10]
  MBC: > 256 µg/mL
Staphylococcus aureus [11]
  MBC: > 256 µg/mL
Staphylococcus aureus [12]
  MBC: > 256 µg/mL
[13]
  MBC: > 256 µg/mL
Escherichia coli [14]
  MBC: > 256 µg/mL
Escherichia coli [15]
  MBC: > 256 µg/mL
Pseudomonas aeruginosa [16]
  MBC: > 256 µg/mL
Pseudomonas aeruginosa [17]
  MBC: > 256 µg/mL
Pseudomonas aeruginosa [18]
  MBC: > 256 µg/mL
[19]
  MIC: 128 µg/mL (≈ 148 µM)
[20]
  MIC: 128 µg/mL (≈ 148 µM)
[21]
  MIC: 128 µg/mL (≈ 148 µM)
[22]
  MIC: 128 µg/mL (≈ 148 µM)
[23]
  MIC: 256 µg/mL (≈ 296 µM)
[24]
  MIC: 64 µg/mL (≈ 73.9 µM)
[25]
  MIC: 64 µg/mL (≈ 73.9 µM)
[26]
  MIC: 128 µg/mL (≈ 148 µM)
[27]
  MIC: 256 µg/mL (≈ 296 µM)
[28]
  MIC: 128 µg/mL (≈ 148 µM)
[29]
  MIC: 256 µg/mL (≈ 296 µM)
[30]
  MBC: > 256 µg/mL
[31]
  MBC: > 256 µg/mL
[32]
  MBC: > 256 µg/mL
[33]
  MBC: > 256 µg/mL
[34]
  MBC: > 256 µg/mL
[35]
  MBC: > 256 µg/mL
[36]
  MBC: > 256 µg/mL
[37]
  MBC: > 256 µg/mL
[38]
  MBC: > 256 µg/mL
[39]
  MBC: > 256 µg/mL
[40]
  MBC: > 256 µg/mL
Bacillus subtilis [41]
  diameter of the inhibition zone (DIZ): 13 mm
Bacillus subtilis [42]
  diameter of the inhibition zone (DIZ): 14 mm

## CC[C@@H](C(=O)[C@@H](C)[C@@H](O)[C@H](C)[C@@H]1O[C@@H]([C@@H](CC)C(=O)N(Cc2ccccc2)Cc2ccccc2)CC[C@@H]1C)[C@H]1O[C@]2(C=C[C@@H](O)[C@]3(CC[C@@](C)([C@H]4CC[C@](O)(CC)[C@H](C)O4)O3)O2)[C@H](C)C[C@@H]1C
Staphylococcus aureus [1]
  MIC: 16 µg/mL (≈ 17.2 µM)
Staphylococcus aureus [2]
  MIC: 8 µg/mL (≈ 8.6 µM)
Staphylococcus aureus [3]
  MIC: 32 µg/mL (≈ 34.4 µM)
[4]
  MIC: 16 µg/mL (≈ 17.2 µM)
Escherichia coli [5]
  MIC: > 256 µg/mL
Escherichia coli [6]
  MIC: > 256 µg/mL
Pseudomonas aeruginosa [7]
  MIC: > 256 µg/mL
Pseudomonas aeruginosa [8]
  MIC: > 256 µg/mL
Bacillus anthracis
  MIC: 32 µg/mL (≈ 34.4 µM)
Staphylococcus aureus [9]
  MBC: 256 µg/mL (≈ 275 µM)
Staphylococcus aureus [10]
  MBC: 128 µg/mL (≈ 138 µM)
Staphylococcus aureus [11]
  MBC: 256 µg/mL (≈ 275 µM)
Staphylococcus aureus [12]
  MBC: > 256 µg/mL
[13]
  MBC: 128 µg/mL (≈ 138 µM)
Escherichia coli [14]
  MBC: > 256 µg/mL
Escherichia coli [15]
  MBC: > 256 µg/mL
Pseudomonas aeruginosa [16]
  MBC: > 256 µg/mL
Pseudomonas aeruginosa [17]
  MBC: > 256 µg/mL
Pseudomonas aeruginosa [18]
  MBC: > 256 µg/mL
[19]
  MIC: 32 µg/mL (≈ 34.4 µM)
[20]
  MIC: 16 µg/mL (≈ 17.2 µM)
[21]
  MIC: 16 µg/mL (≈ 17.2 µM)
[22]
  MIC: 16 µg/mL (≈ 17.2 µM)
[23]
  MIC: 16 µg/mL (≈ 17.2 µM)
[24]
  MIC: 8 µg/mL (≈ 8.6 µM)
[25]
  MIC: 16 µg/mL (≈ 17.2 µM)
[26]
  MIC: 16 µg/mL (≈ 17.2 µM)
[27]
  MIC: 32 µg/mL (≈ 34.4 µM)
[28]
  MIC: 32 µg/mL (≈ 34.4 µM)
[29]
  MIC: 32 µg/mL (≈ 34.4 µM)
[30]
  MBC: 128 µg/mL (≈ 138 µM)
[31]
  MBC: 256 µg/mL (≈ 275 µM)
[32]
  MBC: 256 µg/mL (≈ 275 µM)
[33]
  MBC: 256 µg/mL (≈ 275 µM)
[34]
  MBC: 256 µg/mL (≈ 275 µM)
[35]
  MBC: 128 µg/mL (≈ 138 µM)
[36]
  MBC: 256 µg/mL (≈ 275 µM)
[37]
  MBC: > 256 µg/mL
[38]
  MBC: > 256 µg/mL
[39]
  MBC: > 256 µg/mL
[40]
  MBC: > 256 µg/mL
Bacillus subtilis [41]
  diameter of the inhibition zone (DIZ): 21 mm
Bacillus subtilis [42]
  diameter of the inhibition zone (DIZ): 20 mm
